How the values were obtained:
[1] = target: T1, Rap guanine nucleotide exchange factor 4 (Mus musculus, UniProt Q9EQZ6); assay: Antagonist activity at mouse EPAC2 assessed as inhibition of EPAC2-mediated Rap1B (1 to 167 residues)-BODIPY GDP nucleotide exchange activity
T1 sequence (Q9EQZ6 whole entry): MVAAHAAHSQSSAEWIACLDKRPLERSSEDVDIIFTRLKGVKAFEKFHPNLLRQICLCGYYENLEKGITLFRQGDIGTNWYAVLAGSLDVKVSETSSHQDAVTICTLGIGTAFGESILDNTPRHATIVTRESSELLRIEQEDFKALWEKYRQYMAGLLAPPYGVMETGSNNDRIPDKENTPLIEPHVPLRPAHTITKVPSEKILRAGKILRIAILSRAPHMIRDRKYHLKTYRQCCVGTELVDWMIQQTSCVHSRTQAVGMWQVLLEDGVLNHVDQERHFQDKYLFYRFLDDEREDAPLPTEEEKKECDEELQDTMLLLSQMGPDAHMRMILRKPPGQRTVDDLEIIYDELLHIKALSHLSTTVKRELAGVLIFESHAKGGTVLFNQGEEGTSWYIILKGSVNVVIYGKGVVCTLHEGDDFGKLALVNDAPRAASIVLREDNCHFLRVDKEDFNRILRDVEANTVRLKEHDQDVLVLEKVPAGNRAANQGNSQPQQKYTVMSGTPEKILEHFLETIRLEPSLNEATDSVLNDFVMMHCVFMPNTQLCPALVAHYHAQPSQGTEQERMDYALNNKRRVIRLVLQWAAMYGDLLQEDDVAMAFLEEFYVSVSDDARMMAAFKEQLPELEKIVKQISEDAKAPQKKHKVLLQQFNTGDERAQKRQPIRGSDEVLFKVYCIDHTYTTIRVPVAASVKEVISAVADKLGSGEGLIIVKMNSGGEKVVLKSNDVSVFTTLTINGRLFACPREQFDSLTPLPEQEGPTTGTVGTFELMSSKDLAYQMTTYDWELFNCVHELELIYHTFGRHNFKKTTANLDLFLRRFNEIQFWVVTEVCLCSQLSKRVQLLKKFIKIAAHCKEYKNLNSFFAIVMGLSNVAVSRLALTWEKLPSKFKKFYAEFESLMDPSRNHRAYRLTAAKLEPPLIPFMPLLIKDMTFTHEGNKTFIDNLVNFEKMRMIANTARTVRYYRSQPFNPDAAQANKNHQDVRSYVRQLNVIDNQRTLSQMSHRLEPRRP

[2] = Ratio of IC50 for recombinant human full length EPAC1 to IC50 for mouse EPAC2
[3] = target: T2, Rap guanine nucleotide exchange factor 3 (Homo sapiens, UniProt O95398); assay: Antagonist activity at recombinant human full length EPAC1 assessed as inhibition of EPAC1-mediated Rap1B (1 to 167 residues)-BODIPY GDP nucleotide exchange activity in presence of 20 uM cAMP
T2 sequence (O95398 whole entry): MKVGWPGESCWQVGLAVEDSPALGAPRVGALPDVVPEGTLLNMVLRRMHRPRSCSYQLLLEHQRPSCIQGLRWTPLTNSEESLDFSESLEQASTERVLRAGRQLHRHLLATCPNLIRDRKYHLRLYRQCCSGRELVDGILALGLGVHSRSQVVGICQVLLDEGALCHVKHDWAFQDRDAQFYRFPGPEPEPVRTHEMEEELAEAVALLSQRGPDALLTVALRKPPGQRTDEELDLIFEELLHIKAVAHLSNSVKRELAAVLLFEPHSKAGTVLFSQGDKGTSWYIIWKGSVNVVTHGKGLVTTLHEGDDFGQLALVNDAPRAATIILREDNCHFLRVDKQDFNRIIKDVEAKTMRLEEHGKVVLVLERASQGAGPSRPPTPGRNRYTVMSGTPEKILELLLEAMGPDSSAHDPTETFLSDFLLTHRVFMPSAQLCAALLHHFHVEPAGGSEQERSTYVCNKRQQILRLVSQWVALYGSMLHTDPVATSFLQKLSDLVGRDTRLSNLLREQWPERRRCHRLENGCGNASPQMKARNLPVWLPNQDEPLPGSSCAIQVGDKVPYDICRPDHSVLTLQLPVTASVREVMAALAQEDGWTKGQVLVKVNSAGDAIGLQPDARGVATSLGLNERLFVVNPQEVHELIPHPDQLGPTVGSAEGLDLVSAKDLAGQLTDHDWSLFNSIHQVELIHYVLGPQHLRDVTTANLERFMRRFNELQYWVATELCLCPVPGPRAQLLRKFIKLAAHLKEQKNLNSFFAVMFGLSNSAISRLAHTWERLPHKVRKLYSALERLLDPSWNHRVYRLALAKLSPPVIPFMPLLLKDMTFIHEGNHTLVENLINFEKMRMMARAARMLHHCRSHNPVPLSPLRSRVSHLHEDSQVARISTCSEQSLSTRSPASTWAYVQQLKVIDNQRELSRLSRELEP

Structure (SMILES) | IC50 [1] [µM] | Ratio IC50 [2] | IC50 [3] [µM]
CC(C)(C)c1cc(C(=O)/C(C#N)=N/Nc2cccc(Cl)c2)no1 | 4.4 | 2.5 | 
N#C/C(=N\Nc1ccc(Cl)c(C(F)(F)F)c1)C(=O)c1noc2ccccc12 | 1.9 |  | 2.7
N#C/C(=N\Nc1cc(C(F)(F)F)cc(C(F)(F)F)c1)C(=O)c1noc2ccccc12 |  |  | 6.7
N#C/C(=N\Nc1cc(F)cc(Cl)c1)C(=O)c1noc2ccccc12 |  |  | 18.9
COc1ccc(-c2cc(C(=O)/C(C#N)=N/Nc3ccc(Cl)c(C(F)(F)F)c3)no2)cc1 | 4.5 |  | 
N#C/C(=N\Nc1ccc(Cl)c(C(F)(F)F)c1)C(=O)c1cc(-c2ccco2)on1 | 2.3 |  | 4.2
N#C/C(=N\Nc1cccc(Cl)c1)C(=O)c1cc(-c2ccccc2)on1 |  |  | > 150
COc1ccc(-c2cc(C(=O)/C(C#N)=N/Nc3cccc(Cl)c3)no2)cc1 |  |  | 11.4
CC(C)(C)c1cc(C(=O)/C(C#N)=N/Nc2cc(Cl)c(Cl)c(Cl)c2)no1 |  |  | 2.7
N#C/C(=N\Nc1ccc(Cl)c(C(F)(F)F)c1)C(=O)c1cc(-c2ccccc2)on1 | 2.3 |  | 
N#C/C(=N\Nc1cc(Cl)cc(C(F)(F)F)c1)C(=O)c1cc(-c2ccccc2)on1 |  |  | 9.5
N#C/C(=N\Nc1cc(Cl)cc(C(F)(F)F)c1)C(=O)c1noc2ccccc12 | 2.2 |  | 4.6
N#C/C(=N\Nc1cc(C(F)(F)F)cc(C(F)(F)F)c1)C(=O)c1cc(-c2ccccc2)on1 | 3.3 |  | 7.2
N#C/C(=N\Nc1ccc(F)c(Cl)c1)C(=O)c1noc2ccccc12 |  |  | 8.5
COc1ccc(-c2cc(C(=O)/C(C#N)=N/Nc3cc(C(F)(F)F)cc(C(F)(F)F)c3)no2)cc1 | 7 |  | 5.6
N#C/C(=N\Nc1ccc(C(F)(F)F)c(Cl)c1)C(=O)c1noc2ccccc12 | 2.2 |  | 3
CC(C)(C)c1ccc(-c2cc(C(=O)/C(C#N)=N/Nc3ccc(Cl)c(C(F)(F)F)c3)no2)cc1 | 2.2 |  | 7.3
CC(C)(C)c1ccc(-c2cc(C(=O)/C(C#N)=N/Nc3cccc(Cl)c3)no2)cc1 |  |  | 8.6
N#C/C(=N\Nc1cccc(Cl)c1)C(=O)c1noc2ccccc12 |  |  | 13.2
CC(C)(C)c1ccc(-c2cc(C(=O)/C(C#N)=N/Nc3cc(C(F)(F)F)cc(C(F)(F)F)c3)no2)cc1 |  |  | 11.9
CC(C)(C)c1ccc(-c2cc(C(=O)/C(C#N)=N/Nc3ccc(C(F)(F)F)c(Cl)c3)no2)cc1 |  |  | 9
N#C/C(=N\Nc1ccc(Cl)c(C(F)(F)F)c1)C(=O)c1cc(-c2ccc(Cl)cc2)on1 |  |  | 7.8
N#C/C(=N\Nc1cccc(Cl)c1)C(=O)c1cc(-c2ccco2)on1 |  |  | 9.9
N#C/C(=N\Nc1cc(Cl)cc(C(F)(F)F)c1)C(=O)c1cc(-c2ccco2)on1 | 2.2 |  | 3.6

From ChEMBL document CHEMBL4020713, “Identification of novel 2-(benzo[d]isoxazol-3-yl)-2-oxo-N-phenylacetohydrazonoyl cyanide analoguesas potent EPAC antagonists” (Eur J Med Chem, 2017)
